We go through 15 compounds from PubChem BioAssay AID252 (DTP/NCI, 2004).

For the assay, the system named is BDF1 mice, intracerebral L1210 leukemia, survival T/C. As to the kind of experiment: NCI In Vivo Anticancer Drug Screen. Data for tumor model L1210 Leukemia (intracerebral) in B6D2F1 (BDF1) mice. The conditions noted are these: endpoint: mean survival time, higher = longer survival. The method in brief: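 Survival measured in treated and vehicle-control tumour-bearing mice; value = T/C.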

Where [1] appears, read: dose: 12.0 mg/kg/injection, schedule: Q01DX001 (ip), vehicle: carboxymethylcellulose (CMC).
The mark [2] stands for this setting: dose: 18.0 mg/kg/injection, schedule: Q01DX001 (ip), vehicle: carboxymethylcellulose (CMC).
The mark [3] stands for this setting: dose: 26.0 mg/kg/injection, schedule: Q01DX001 (ip), vehicle: carboxymethylcellulose (CMC).
[4] abbreviates: dose: 40.0 mg/kg/injection, schedule: Q01DX001 (ip), vehicle: carboxymethylcellulose (CMC).

Several values for one entry are separate records, joined by “and”; a condition that tells them apart may be missing. Equal entries are not always repeated. Toxic doses and inconclusive results are not listed.

`CCOC(=O)C1(NC(=O)N(CCCl)N=O)CCCC1`: the T/C is, setting by setting: (dose: 74.0 mg/kg/injection, schedule: Q01DX001 (ip), vehicle: other) 116 % of control; (dose: 108.0 mg/kg/injection, schedule: Q01DX001 (ip), vehicle: other) 119 % of control; (dose: 110.0 mg/kg/injection, schedule: Q01DX001 (ip), vehicle: other) 118 % of control; (dose: 168.0 mg/kg/injection, schedule: Q01DX001 (ip), vehicle: other) 152 % of control; (dose: 250.0 mg/kg/injection, schedule: Q01DX001 (ip), vehicle: other) 174 % of control and 275 % of control; (dose: 370.0 mg/kg/injection, schedule: Q01DX001 (ip), vehicle: other) 152 % of control. Besides, the T/C (dose: 375.0 mg/kg/injection, schedule: Q01DX001 (ip), vehicle: other) was 124 % of control.

Turning to `Cc1c(O)ccc(=O)n1O`, the T/C (dose: 49.0 mg/kg/injection, schedule: Q01DX Z (ip), vehicle: other) is 98 % of control; the T/C (dose: 73.0 mg/kg/injection, schedule: Q01DX Z (ip), vehicle: other) was 96 % of control; the T/C (dose: 110.0 mg/kg/injection, schedule: Q01DX Z (ip), vehicle: other) was 93 % of control; the T/C (dose: 165.0 mg/kg/injection, schedule: Q01DX Z (ip), vehicle: other) is 110 % of control; the T/C (dose: 247.0 mg/kg/injection, schedule: Q01DX Z (ip), vehicle: other) was 92 % of control.

As to `O=NN(CCCl)C(=O)Nc1cccc2cccnc12`, the T/C was 101 % of control (dose: 1.0 mg/kg/injection, schedule: Q01DX001 (ip), vehicle: carboxymethylcellulose (CMC)); 103 % of control (dose: 1.5 mg/kg/injection, schedule: Q01DX001 (ip), vehicle: carboxymethylcellulose (CMC)); 104 % of control (dose: 2.6 mg/kg/injection, schedule: Q01DX001 (ip), vehicle: carboxymethylcellulose (CMC)); 105 % of control (dose: 4.0 mg/kg/injection, schedule: Q01DX001 (ip), vehicle: carboxymethylcellulose (CMC)); 101 % of control (dose: 6.0 mg/kg/injection, schedule: Q01DX001 (ip), vehicle: carboxymethylcellulose (CMC)); 102 % of control (dose: 9.0 mg/kg/injection, schedule: Q01DX001 (ip), vehicle: carboxymethylcellulose (CMC)). The T/C by setting is: under setting [1], 98 % of control; under setting [2], 98 % of control.

With `O=NN(CCCl)C(=O)Nc1cccc([N+](=O)[O-])c1`, the T/C is, setting by setting: under setting [1], 102 % of control; under setting [2], 118 % of control; under setting [3], 117 % of control; under setting [4], 115 % of control.

As for `Cc1cccc(C)c1NC(=O)N(CCCl)N=O`, the T/C by setting is: (dose: 13.0 mg/kg/injection, schedule: Q01DX001 (ip), vehicle: carboxymethylcellulose (CMC)) 113 % of control; (dose: 20.0 mg/kg/injection, schedule: Q01DX001 (ip), vehicle: carboxymethylcellulose (CMC)) 112 % of control; (dose: 30.0 mg/kg/injection, schedule: Q01DX001 (ip), vehicle: carboxymethylcellulose (CMC)) 119 % of control.

For the compound `O=NN(CCCl)C(=O)Nc1ccc(F)cc1`, the T/C reads like this: (dose: 11.0 mg/kg/injection, schedule: Q01DX001 (ip), vehicle: carboxymethylcellulose (CMC)) 109 % of control; (dose: 16.6 mg/kg/injection, schedule: Q01DX001 (ip), vehicle: carboxymethylcellulose (CMC)) 112 % of control; (dose: 25.0 mg/kg/injection, schedule: Q01DX001 (ip), vehicle: carboxymethylcellulose (CMC)) 109 % of control; (dose: 37.5 mg/kg/injection, schedule: Q01DX001 (ip), vehicle: carboxymethylcellulose (CMC)) 108 % of control.

Regarding `O=NN(CCCl)C(=O)NC12CC3CC(CC(C3)C1)C2`, the T/C was 108 % of control under setting [3]; 112 % of control under setting [4]; 120 % of control (dose: 90.0 mg/kg/injection, schedule: Q01DX001 (ip), vehicle: carboxymethylcellulose (CMC)).

Turning to `C[C@@H]1C[C@@H]([C@H](O)CC2CC(=O)NC(=O)C2)C(=O)[C@@H](C)C1`, the T/C runs as follows: (dose: 16.0 mg/kg/injection, schedule: Q01DX015 (ip), vehicle: saline) 121 % of control; (dose: 24.0 mg/kg/injection, schedule: Q01DX015 (ip), vehicle: saline) 120 % of control; (dose: 36.0 mg/kg/injection, schedule: Q01DX015 (ip), vehicle: saline) 116 % of control; (dose: 44.0 mg/kg/injection, schedule: Q01DX001 (ip), vehicle: saline) 98 % of control; (dose: 67.0 mg/kg/injection, schedule: Q01DX001 (ip), vehicle: saline) 104 % of control; (dose: 100.0 mg/kg/injection, schedule: Q01DX001 (ip), vehicle: saline) 103 % of control.

In the case of `CCC(=O)NC1=C(N2CC2)C(=O)C(NC(=O)CC)=C(N2CC2)C1=O`, the T/C was 105 % of control (dose: 0.5 mg/kg/injection, schedule: Q01DX009 (ip), vehicle: saline) and 117 % of control (dose: 2.0 mg/kg/injection, schedule: Q01DX009 (ip), vehicle: saline).

As for `O=NN(CCCl)C(=O)Nc1ccc2ccccc2c1`, the T/C by setting is: (dose: 137.0 mg/kg/injection, schedule: Q01DX001 (ip), vehicle: carboxymethylcellulose (CMC)) 115 % of control; (dose: 200.0 mg/kg/injection, schedule: Q01DX001 (ip), vehicle: carboxymethylcellulose (CMC)) 103 % of control; (dose: 300.0 mg/kg/injection, schedule: Q01DX001 (ip), vehicle: carboxymethylcellulose (CMC)) 108 % of control.

With `O=NN(CCCl)C(=O)Nc1cccc(C(=O)O)c1`, the T/C is 95 % of control (dose: 8.0 mg/kg/injection, schedule: Q01DX001 (ip), vehicle: carboxymethylcellulose (CMC)); 108 % of control under setting [1]; 106 % of control under setting [2].

Consider `O=C(Nc1ccc(C2=NCCCN2)cc1)c1ccc(C(=O)Nc2ccc(C3=NCCCN3)cc2)cc1`, for which the T/C (dose: 1.25 mg/kg/injection, schedule: Q01DX Z (ip), vehicle: carboxymethylcellulose (CMC)) is 107 % of control; the T/C (dose: 2.5 mg/kg/injection, schedule: Q01DX Z (ip), vehicle: carboxymethylcellulose (CMC)) was 107 % of control; the T/C (dose: 5.0 mg/kg/injection, schedule: Q01DX Z (ip), vehicle: carboxymethylcellulose (CMC)) is 114 % of control; the T/C (dose: 31.0 mg/kg/injection, schedule: Q01DX Z (ip), vehicle: carboxymethylcellulose (CMC)) was 104 % of control.

Consider `O=c1cnn(C2OC(CO)C(O)C2O)c(=O)[nH]1` (stereo not drawn), for which, where the note is “dose: 750.0 mg/kg/injection, schedule: Q01DX Z (ip), vehicle: saline”, the T/C was 158 % of control.

For `CCOCCN1CCN(CCCN2c3ccccc3Sc3ccc(C(F)(F)F)cc32)CC1`, the T/C runs as follows: (dose: 0.78 mg/kg/injection, schedule: Q01DX009 (ip), vehicle: water) 106 % of control; (dose: 1.56 mg/kg/injection, schedule: Q01DX009 (ip), vehicle: water) 103 % of control; (dose: 25.0 mg/kg/injection, schedule: Q04DX003 (ip), vehicle: water) 106 % of control.

Take `O=NN(CCCl)C(=O)Nc1ccc(NC(=O)N(CCCl)N=O)cc1`: the T/C (dose: 44.0 mg/kg/injection, schedule: Q01DX009 (ip), vehicle: carboxymethylcellulose (CMC)) is 186 % of control; the T/C (dose: 67.0 mg/kg/injection, schedule: Q01DX009 (ip), vehicle: carboxymethylcellulose (CMC)) is 181 % of control; the T/C (dose: 100.0 mg/kg/injection, schedule: Q01DX009 (ip), vehicle: carboxymethylcellulose (CMC)) was 160 % of control; the T/C (dose: 109.0 mg/kg/injection, schedule: Q01DX001 (ip), vehicle: carboxymethylcellulose (CMC)) is 119 % of control and 124 % of control; the T/C (dose: 225.0 mg/kg/injection, schedule: Q01DX009 (ip), vehicle: carboxymethylcellulose (CMC)) was 94 % of control; the T/C (dose: 264.0 mg/kg/injection, schedule: Q01DX001 (ip), vehicle: carboxymethylcellulose (CMC)) was 168 % of control. For the same compound, the T/C runs as follows: (dose: 366.0 mg/kg/injection, schedule: Q01DX001 (ip), vehicle: carboxymethylcellulose (CMC)) 168 % of control and 182 % of control; (dose: 400.0 mg/kg/injection, schedule: Q01DX001 (ip), vehicle: carboxymethylcellulose (CMC)) 181 % of control; (dose: 550.0 mg/kg/injection, schedule: Q01DX001 (ip), vehicle: carboxymethylcellulose (CMC)) 155 % of control and 167 % of control; (dose: 600.0 mg/kg/injection, schedule: Q01DX001 (ip), vehicle: carboxymethylcellulose (CMC)) 172 % of control; (dose: 900.0 mg/kg/injection, schedule: Q01DX001 (ip), vehicle: carboxymethylcellulose (CMC)) 190 % of control; (dose: 1350.0 mg/kg/injection, schedule: Q01DX001 (ip), vehicle: carboxymethylcellulose (CMC)) 173 % of control.
